Data from patent US20230242538A1, “PanK Modulators and Methods Using Same” (YALE UNIVERSITY, priority 2020, published 2023).

Key:
hPanK3 = hPanK3 (Homo sapiens, UniProt Q9H999); experiment: Modulation of human PanK (hPanK3); assay type: biochemical; conditions: Table 1
Experimental: (§1) Compounds of interest were assayed for their activity as inhibitors of fungal pantothenate kinase (PanK), modulators of human PanK, and general toxicity against HeLa cells.

S. cerevisiae monster = experiment: Growth inhibition of S. cerevisiae monster; assay type: cell-based; conditions: Saccharomyces cerevisiae; 200 μM of compound (μg/mL equivalent in brackets), VFM medium with no pantothenic acid, 24 h, 10^5 cells/ml
Experimental: In Table 1, “mixed” indicates a compound that is an activator at lower concentrations and is an inhibitor at higher concentrations. % growth inhibition S. cerevisiae monster was determined at 200 μM of compound in VFM medium with no pantothenic acid at 24 h (10^5 cells/ml).

[1] = molecular target: A. fumigatus enzyme (AfPanK) (Aspergillus fumigatus, UniProt Q4WWV3); experiment: Inhibition of A. fumigatus pantothenate kinase (AfPanK); assay type: biochemical; conditions: Table 1; read-out: A. fum. IC50
HeLa cells = experiment: General toxicity against HeLa cells, 72 hr; assay type: cell-based; conditions: for EC50: Homo sapiens, HeLa, Table 1, read-out: EC50 HeLa Tox 72 hr; for EC50 HeLa Tox 72 hr μM: Table 1
Experimental: as §1

hPanK3, sequence (Q9H999 whole entry): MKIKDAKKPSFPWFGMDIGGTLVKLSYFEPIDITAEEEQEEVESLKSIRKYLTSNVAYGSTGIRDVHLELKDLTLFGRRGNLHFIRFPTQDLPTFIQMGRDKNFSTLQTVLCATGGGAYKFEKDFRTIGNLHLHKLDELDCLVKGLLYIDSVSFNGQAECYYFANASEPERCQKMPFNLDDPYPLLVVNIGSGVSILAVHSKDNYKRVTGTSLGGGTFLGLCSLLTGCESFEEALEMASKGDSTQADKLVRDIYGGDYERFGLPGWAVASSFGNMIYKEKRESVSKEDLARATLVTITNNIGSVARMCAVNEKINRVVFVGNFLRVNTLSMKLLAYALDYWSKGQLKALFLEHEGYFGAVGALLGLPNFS
A. fumigatus enzyme (AfPanK), sequence (Q4WWV3 entry or part of it): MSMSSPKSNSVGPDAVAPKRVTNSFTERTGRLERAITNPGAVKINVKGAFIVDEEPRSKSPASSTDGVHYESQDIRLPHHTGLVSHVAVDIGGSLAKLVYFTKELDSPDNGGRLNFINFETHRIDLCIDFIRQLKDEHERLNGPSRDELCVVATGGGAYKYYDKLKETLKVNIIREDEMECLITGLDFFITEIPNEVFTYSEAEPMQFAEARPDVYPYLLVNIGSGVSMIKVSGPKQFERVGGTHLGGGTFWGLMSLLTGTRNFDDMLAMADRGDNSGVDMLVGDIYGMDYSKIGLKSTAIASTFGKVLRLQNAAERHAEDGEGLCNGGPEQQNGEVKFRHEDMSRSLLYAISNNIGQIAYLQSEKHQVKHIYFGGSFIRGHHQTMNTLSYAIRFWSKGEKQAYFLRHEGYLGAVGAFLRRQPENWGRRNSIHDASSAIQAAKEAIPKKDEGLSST

Compound | IC50 (hPanK3) [µM] | inhibition at 200 µM (S. cerevisiae monster) [%] | IC50 [1] [µM] | EC50 (HeLa cells) [µM] | EC50 HeLa Tox 72 hr μM (HeLa cells)
COC(=O)CNC(=O)c1cc(C)nc2nc(NCc3ccc(C(C)(C)C)cc3)nn12 [Compound A8] | > 100 | 67 | > 50 | – | –
CC(C)(C)c1ccc(CNc2nc3nc(CN4CCOCC4)cc(N)n3n2)cc1 [Compound A13] | – | 25 | 71 | > 100 | –
Cc1cc(C(=O)NCC(N)=O)n2nc(NCc3ccc(C(C)(C)C)cc3)nc2n1 [Compound A4] | > 100 | 62 | 2.4 | – | –
CC(C)(C)OC(=O)N1CCN(Cc2cc(=O)n3nc(NCc4ccc(C(C)(C)C)cc4)nc3[nH]2)CC1 [Compound A2] | – | 87 | 0.083 | – | Inactive
CC(=O)N1CCN(Cc2cc(=O)n3nc(NCc4ccc(C(C)(C)C)cc4)nc3[nH]2)CC1 [Compound A1] | – | 98 | 0.036 | – | Inactive
CCOc1cc(CN2CCOCC2)nc2nc(NCc3ccc(C(C)(C)C)cc3)nn12 [Compound A15] | – | 37 | 98 | – | –
CC(C)NCc1cc(=O)n2nc(NCc3ccc(C(C)C)cc3)nc2[nH]1 [Compound A10, 5-((isopropylamino)methyl)-2-((4-isopropylbenzyl)amino)-[1,2,4]triazolo[1,5-a]pyrimidin-7(4H)-one] | – | 13 | 53 | – | –
Cc1cc(C(=O)NCC(=O)O)n2nc(NCc3ccc(C(C)(C)C)cc3)nc2n1 [Compound A18] | > 100 | 29 | ~100 | – | –
CC(C)(C)c1ccc(CNc2nc3nc(CN4CCOCC4)cc(OCCO)n3n2)cc1 [Compound A12] | – | 94 | 68 | – | –
Cc1cc(C(=O)NCc2cccnc2)n2nc(NCc3ccc(C(C)(C)C)cc3)nc2n1 [Compound A17] | > 100 | 63 | ~100 | – | –
CN1CCN(Cc2cc(=O)n3nc(-c4ccc(C(C)(C)C)cc4)nc3[nH]2)CC1 [Compound A5, 2-(4-(tert-butyl)phenyl)-5-((4-methylpiperazin-1-yl)methyl)-[1,2,4]triazolo[1,5-a]pyrimidin-7(4H)-one] | > 100 | 86 | 5.5 | – | Inactive
CC(C)(C)c1ccc(CNc2nc3nc(CN4CCOCC4)cc(OCC(N)=O)n3n2)cc1 [Compound A11] | – | 77 | 62 | – | –
CC(C)(C)c1ccc(CNc2nc3nc(CN4CCOCC4)cc(Cl)n3n2)cc1 [Compound A16] | > 100 | 80 | ~100 | 2.3 | –
COc1cc(CN2CCOCC2)nc2nc(NCc3ccc(C(C)(C)C)cc3)nn12 [Compound A6] | > 100 | 34 | 31 | > 100 | –
Cc1cc(C(=O)Nc2ccccn2)n2nc(NCc3ccc(C(C)(C)C)cc3)nc2n1 [Compound A7] | > 100 | 79 | > 50 | – | –
CC(C)(C)c1ccc(CNc2nc3nc(CN4CCOCC4)cc(OCC(=O)O)n3n2)cc1 [Compound A14] | – | 49 | 78 | – | –
Cc1cc(C(=O)O)n2nc(NCc3ccc(C(C)(C)C)cc3)nc2n1 [Compound A3] | > 5 | 87 | 0.086 | > 100 | –
Cc1cc(C(=O)NCCO)n2nc(NCc3ccc(C(C)(C)C)cc3)nc2n1 [Compound A9] | > 100 | 102 | > 50 | – | –
